# Data: PubChem BioAssay (NCI)
#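 These data come from cells grown in 96-well plates and exposed to compound for 48 hours at five concentrations. GI50 marks 50% less growth. TGI: total growth inhibition.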
# Assays:
# Assay in all cases: growth of human tumour cells (NCI), 48 h
# [1] = test system: SNB-75 CNS
# [2] = test system: KM12 colon
# [3] = test system: M14 melanoma
# [4] = test system: OVCAR-5 ovarian
# [5] = test system: MALME-3M melanoma
# [6] = test system: SK-MEL-2 melanoma
# [7] = test system: MDA-MB-435
# [8] = test system: NCI/ADR-RES ovarian
# [9] = test system: U251 CNS
# [10] = test system: CCRF-CEM leukemia
SMILES,TGI [1] [µM],TGI [2] [µM],TGI [3] [µM],TGI [4] [µM],TGI [5] [µM],TGI [6] [µM],TGI [7] [µM],TGI [8] [µM],TGI [9] [µM],TGI [10] [µM],GI50 [4] [µM],GI50 [7] [µM],GI50 [10] [µM]
COC(=O)C1=C(C)NC(C)=C(C(=O)OC)C1c1cccc(/[N+]([O-])=C/c2ccccc2)c1,> 100,> 100,35,> 100,29.9,> 100,35.7,58,> 100,44.8,,,
OC(CCN1CCN(CCOC(c2ccccc2)c2ccccc2)CC1)c1ccccc1 (stereo not drawn),> 100,51.1,34.1,> 100,32.6,31.6,38.3,73.1,36,> 100,,,
COC(=O)/C=C1\C(CO[Si](C)(C)C(C)(C)C)OC(n2cc(C)c(=O)n(C)c2=O)C1O[Si](C)(C)C(C)(C)C (stereo not drawn),> 100,> 100,> 100,> 100,> 100,> 100,> 100,> 100,> 100,> 100,,,
CCOC(=O)c1nc2ccccc2nc1Nc1ccc(C(=O)OC)s1,> 100,> 100,> 100,> 100,> 100,> 100,> 100,> 100,> 100,> 100,,,
CCOC(=O)c1sc2nc(SC)nc3c2c1NCN3C,22.9,> 100,> 100,> 100,57.6,> 100,> 100,> 100,46.9,> 100,,,
COCC(C#N)NC1CC(OC2CC(O)(C(=O)CO)Cc3c(O)c4c(c(O)c32)C(=O)c2c(OC)cccc2C4=O)OC(C)C1O (stereo not drawn),0.373,0.77,0.774,2.54,0.18,0.316,0.346,16,0.86,1.69,,,
COc1cc(C(c2ccccc2)N2C(=O)CC[C@H]2C(=O)O)cc(OC)c1OC (stereo partly drawn),> 100,> 100,> 100,> 100,> 100,> 100,> 100,> 100,> 100,> 100,,,
N=C(N)SCc1nc(-c2ccc(Cl)cc2)no1,59.4,> 100,45.6,27.8,34.6,41.7,28.4,> 100,78.8,31.8,,,
O=C1C(c2ccccc2)=C(c2ccccc2)C1(Cl)Cl,16.6,19.2,5.9,20.8,7.56,8.7,6.7,> 27,7.68,3.96,,,
N=C1C=CC(=C(c2ccc(N)cc2)c2ccc(N)cc2)C=C1,11.5,13.7,15.8,50.3,13.3,10.4,19.7,49.3,22.6,19.5,,,
Clc1nc2nc(N3CCNCC3)nc(N3CCCC3)c2[nH]1,36,35.9,34.6,44.3,36.3,35.4,34.5,> 100,31.8,41,,,
Cc1cnc2c(c1)C(=O)N(c1ccc(Oc3ccccc3)cc1)S2(=O)=O,> 100,> 100,> 100,> 100,> 100,> 100,> 100,> 100,> 100,> 100,,,
COc1ccc(C2N(c3ccc(C)c(N=C=O)c3)C(=O)N3C(c4ccc(OC)cc4)N(c4ccc(C)c(N=C=O)c4)C(=O)N23)cc1 (stereo not drawn),> 100,> 100,> 100,> 100,96.1,> 100,> 100,> 100,> 100,> 100,,,
CCN(CC)/N=C\c1c2ccccc2cc2ccccc12,68.7,> 100,51.6,> 100,> 100,61.9,> 100,> 100,> 100,94.4,,,
CC1(C)CCC2=C(O1)c1ccccc1C(=Nc1ccc([N+](=O)[O-])cc1)C2=O,38.4,28.2,20.5,28.2,29.7,32.8,29.2,> 100,28.9,46.7,14.5,15.8,19.6
COP(=O)(CP(=O)(OC)OCCC(C)CCC=C(C)C)OC (stereo not drawn),> 100,> 100,> 100,> 100,> 100,> 100,> 100,> 100,87.8,> 100,,,
COc1ccc(/C(=N/O)c2ccccc2C2=Nc3ccccc3C(NCc3ccccc3)O2)cc1C (stereo not drawn),75.4,> 100,> 100,> 100,52.7,> 100,90.4,> 100,> 100,> 100,,,
O=c1oc2ccccc2c(O)c1C(c1ccc(OCc2ccccc2)cc1)c1c(O)c2ccccc2oc1=O,65.6,> 100,> 100,> 100,> 100,> 100,> 100,> 100,> 100,> 100,,,
